Tests used:
Type in all cases: cell-based
[1] = target: T1, human P2X2/3 receptors (Homo sapiens, UniProt P56373+Q9UBL9); assay: Intracellular calcium measurement, antagonist activity at human P2X2/3 receptors (hP2X23 1321N1), Fluo8; conditions: for IC50: column 4); 1321N1 cells, human P2X2/3, Fluo8, agonist ATP at EC50; read-out: 4) hP2X2/3 IC50 [nM] (1321N1); for hP2X23/hP2X3* Selectivity (1321N1): ratio of column 4) hP2X2/3 to column 3) hP2X3, 1321N1
T1 construct: expressed in transfected cells; host or cells: human astrocytoma 1321N1 (1312N1 [sic])
T1 sequence (P56373 1-397): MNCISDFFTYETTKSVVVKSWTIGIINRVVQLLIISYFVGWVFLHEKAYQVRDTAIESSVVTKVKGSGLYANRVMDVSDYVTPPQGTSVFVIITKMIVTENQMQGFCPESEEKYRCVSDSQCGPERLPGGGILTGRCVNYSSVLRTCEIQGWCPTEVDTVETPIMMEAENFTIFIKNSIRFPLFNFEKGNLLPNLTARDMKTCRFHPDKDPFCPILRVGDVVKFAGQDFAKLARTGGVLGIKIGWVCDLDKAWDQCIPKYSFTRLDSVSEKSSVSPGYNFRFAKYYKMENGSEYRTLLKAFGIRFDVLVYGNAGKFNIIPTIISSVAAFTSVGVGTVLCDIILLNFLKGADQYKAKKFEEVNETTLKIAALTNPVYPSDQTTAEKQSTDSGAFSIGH
T1 sequence (Q9UBL9 1-471): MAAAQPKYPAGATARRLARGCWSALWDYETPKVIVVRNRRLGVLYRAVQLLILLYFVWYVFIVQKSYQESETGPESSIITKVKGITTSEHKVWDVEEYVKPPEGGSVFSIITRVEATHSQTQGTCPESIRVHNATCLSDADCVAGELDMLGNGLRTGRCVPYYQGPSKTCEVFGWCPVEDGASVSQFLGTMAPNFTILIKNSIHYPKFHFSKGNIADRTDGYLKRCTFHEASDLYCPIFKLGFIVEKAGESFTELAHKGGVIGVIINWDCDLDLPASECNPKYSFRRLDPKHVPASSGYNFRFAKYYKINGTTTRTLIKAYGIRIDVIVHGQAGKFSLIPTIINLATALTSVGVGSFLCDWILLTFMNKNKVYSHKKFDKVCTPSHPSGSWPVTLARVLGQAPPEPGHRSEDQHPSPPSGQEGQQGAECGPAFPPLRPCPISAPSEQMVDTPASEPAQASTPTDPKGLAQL
Procedure, shortened: (§1)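 Antagonism was assessed by decrease of the Fluo8 calcium signal after ATP challenge, with ATP dosed at the EC50 of whichever receptor was tested. Stable 1321N1 astrocytoma lines expressed either human P2X3 or both P2X2 and P2X3, and were dye-loaded 60 min before a 10 min compound incubation.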

[2] = target: T2, human P2X3 receptor (Homo sapiens, UniProt P56373); assay: Intracellular calcium measurement to assess antagonist activity at human P2X3 receptors (hP2X3 CHO), photina luminescence; design: expressed in transfected cells; host or cells: Chinese hamster ovary (CHO) cells; conditions: column 2), CHO cells, agonist α,β-methylene-ATP at EC50
T2 sequence (P56373 1-397): T1 sequence (P56373 1-397)
Procedure, shortened: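 Antagonism read as lowered photina luminescence after agonist stimulation in recombinant hP2X3/photina CHO cells. Cells seeded one day earlier (30 °C) and reconstituted with 5 μg/ml coelenterazine in 2 mM Ca-tyrode buffer for 3 h at 37 °C before measurement.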

[3] = target: T2, human P2X3 receptor; assay: Intracellular calcium measurement, antagonist activity at human P2X3 receptors (hP2X3 1321N1), Fluo8; design: expressed in transfected cells; host or cells: human astrocytoma 1321N1 (1312N1 [sic]); conditions: column 3); 1321N1 cells, human P2X3, Fluo8, agonist ATP at EC50
Procedure, shortened: as §1

[4] = target: T2, human P2X3 receptor; assay: Intracellular calcium measurement to assess antagonist activity at human P2X3 receptors (hP2X3 FLIPR); design: expressed in transfected cells; host or cells: human astrocytoma 1321N1 (1312N1 [sic]); conditions: head prints (1321N1); read-out: 1) hP2X3 IC50 [nM] (1321N1)
Procedure: 1) Intracellular Calcium Measurement to Assess Antagonist Activity at Human P2X3 Receptors (hP2X3 FLIPR)
A fluorescent imaging plate reader (FLEX/FLIPR station; Molecular Devices) was used to monitor intracellular calcium levels using the calcium-chelating dye Fluo-4 (Molecular Probes). The excitation and emission wavelengths used to monitor fluorescence were 470-495 nm and 515-575 nm, respectively. The human astrocytoma […] cells expressing purinergic receptors P2X3 (human) were plated at a density of 15,000 cells/well in collagen—coated 384-well plates approximately 20 hours before beginning the assay. […] The dye supernatant was removed and replaced with 45 μl probenecid buffer (Hank's balanced salt solution, 20 mM HEPES, 0.5 mM CaCl2, 0.5 mM MgCl2, 0.1% BSA, 5 mM probenecid, 10 mM D-glucose monohydrate, pH=7.4). The test compounds were added in a volume of 5 μl and allowed to incubate for 30 min at 37° C. The final assay DMSO concentration is 1%. […] The fluorescence was measured for an interval of 90 sec at 2 sec intervals and analyzed based on the increase in peak relative fluorescence units (RFU) compared to the basal fluorescence. Peak fluorescence was used to determine the response to agonist obtained at each concentration of test compound by the following equation: Response=100*(RFU(test compound)−RFU(control))/(RFU(DMSO)−RFU(control))
The Examples were tested in triplicates per plate and mean values were plotted in Excel XLFit to determine IC50 values at the human P2X3 and human P2X2/3 receptors, percentage of maximal inhibition and the Hill coefficients.

Row | Structure (SMILES) | IC50 [1] | hP2X23/hP2X3* Selectivity (1321N1) [1] | IC50 [2] | IC50 [3] | IC50 [4]
1 | CC(C)N1Cc2c(n(CC(=O)Nc3ccc(F)cn3)c3cc(C(C)(C)C)nn3c2=O)C1=O [Example 1, 2-[2-tert-butyl-5,8-dioxo-6-(propan-2-yl)-5,6,7,8-tetrahydro-4H-pyrazolo[1,5-a]pyrrolo[3,4-d]pyrimidin-4-yl]-N-(5-fluoropyridin-2-yl)acetamide] | 4900 nM | 138 | 35 nM | 35 nM | 22 nM
2 | CC(C)(C)c1cc2n(CC(=O)Nc3ccc(F)cn3)c3c(c(=O)n2n1)CN(C1COC1)C3=O [Example 27] | > 21000 nM | >102 | 118 nM | 205 nM | 95 nM
3 | CC(C)(C)c1cc2n(CC(=O)Nc3ccc(F)cn3)c3c(c(=O)n2n1)CN(CCN1CCOCC1)C3=O [Example 138, 2-{2-tert-butyl-6-[2-(morpholin-4-yl)ethyl]-5,8-dioxo-5,6,7,8-tetrahydro-4H-pyrazolo[1,5-a]pyrrolo[3,4-d]pyrimidin-4-yl}-N-(5-fluoropyridin-2-yl)acetamide] | 9150 nM | 107 | 32 nM | 86 nM | 56 nM
4 | COCCN1Cc2c(n(CC(=O)Nc3ccc(F)cn3)c3cc(C(C)(C)C)nn3c2=O)C1=O [Example 49] | 3900 nM | 119 | 62 nM | 33 nM | 23 nM
5 | CC(C)(C)c1cc2n(CC(=O)Nc3ccc(F)cn3)c3c(c(=O)n2n1)CN(CC1CC1)C3=O [Example 13] | 5650 nM | 212 | 51 nM | 27 nM | 21 nM
6 | CC(C)[C@H](C)N1Cc2c(n(CC(=O)Nc3ccc(F)cn3)c3cc(C(C)(C)C)nn3c2=O)C1=O [Example 10] | > 32000 nM | >101 | 38 nM | 317 nM | 24 nM
7 | Cc1ccc(NC(=O)Cn2c3c(c(=O)n4nc(C(C)C)cc24)CN(C(C)C)C3=O)nc1 [Example 9] | > 19900 nM | >76 | 220 nM | 263 nM | 107 nM
8 | CCc1cc2n(CC(=O)Nc3ccc(F)cn3)c3c(c(=O)n2n1)CN([C@@H](C)COC)C3=O [Example 46] | 14000 nM | 385 | 59 nM | 36 nM | 28 nM
9 | CC(C)(C)c1cc2n(CC(=O)Nc3ccc(Cl)cn3)c3c(c(=O)n2n1)CN(C1CCC1)C3=O [Example 18] | 2500 nM | 20 | 106 nM | 124 nM | 69 nM
10 | CN(C)CCN1Cc2c(n(CC(=O)Nc3ccc(F)cn3)c3cc(C(C)(C)C)nn3c2=O)C1=O [Example 139, 2-{2-tert-butyl-6-[2-(dimethylamino)ethyl]-5,8-dioxo-5,6,7,8-tetrahydro-4H-pyrazolo[1,5-a]pyrrolo[3,4-d]pyrimidin-4-yl}-N-(5-fluoropyridin-2-yl)acetamide] | > 32000 nM | >80 | 420 nM | 400 nM | 237 nM
11 | COC[C@H](C)N1Cc2c(n(CC(=O)Nc3ccc(F)cn3)c3cc(C(C)(C)C)nn3c2=O)C1=O [Example 35] | 5650 nM | 353 | 20 nM | 16 nM | 12 nM
12 | COC[C@@H](C)N1Cc2c(n(CC(=O)Nc3ccc(F)cn3)c3cc(C)nn3c2=O)C1=O [Example 52] | > 23000 nM | >324 | 43 nM | 71 nM | 52 nM
13 | Cc1cc2n(CC(=O)Nc3ccc(F)cn3)c3c(c(=O)n2n1)CN([C@H](C)C1CC1)C3=O [Example 55] | 10800 nM | 93 | 195 nM | 117 nM | 104 nM
14 | COC[C@H](C)N1Cc2c(n(CC(=O)Nc3ccc(F)cn3)c3cc(C4CCOCC4)nn3c2=O)C1=O [Example 40] | > 23500 nM | >758 | 26 nM | 31 nM | 20 nM
15 | CC(C)(C)c1cc2n(CC(=O)Nc3ccc(F)cn3)c3c(c(=O)n2n1)CN(CCO)C3=O [Example 135, 2-[2-tert-butyl-6-(2-hydroxyethyl)-5,8-dioxo-5,6,7,8-tetrahydro-4H-pyrazolo[1,5-a]pyrrolo[3,4-d]pyrimidin-4-yl]-N-(5-fluoropyridin-2-yl)acetamide] | 6850 nM | 58 | 59 nM | 119 nM | 40 nM

Other lines, results leading:

Row | IC50 [1] | hP2X23/hP2X3* Selectivity (1321N1) [1] | IC50 [2] | IC50 [3] | IC50 [4] | Structure (SMILES)
16 | > 32000 nM | >116 | 120 nM | 277 nM | 130 nM | CC(C)N1Cc2c(n(CC(=O)Nc3ccc(F)cn3)c3cc(C(F)(F)F)nn3c2=O)C1=O [Example 31]
17 | > 21500 nM | >55 | 170 nM | 393 nM | 344 nM | Cc1ccc(NC(=O)Cn2c3c(c(=O)n4nc(C(F)(F)F)cc24)CN(C(C)C)C3=O)nc1 [Example 30]
18 | 12000 nM | 71 | 121 nM | 170 nM | 139 nM | CC(C)(O)CN1Cc2c(n(CC(=O)Nc3ccc(F)cn3)c3cc(C(C)(C)C)nn3c2=O)C1=O [Example 32]
19 | 8100 nM | 31 | 555 nM | 263 nM | 182 nM | CC(C)(C)c1cc2n(CC(=O)Nc3ccc(Cl)cn3)c3c(c(=O)n2n1)CN(C1COC1)C3=O [Example 48]
20 | 12400 nM | 53 | 180 nM | 233 nM | 164 nM | CC[C@H](C)N1Cc2c(n(CC(=O)Nc3ccc(C)cn3)c3cc(C(F)(F)F)nn3c2=O)C1=O [Example 21]
21 | 9600 nM | 54 | 345 nM | 177 nM | 147 nM | Cc1ccc(NC(=O)Cn2c3c(c(=O)n4nc(C(C)(C)C)cc24)CN(C(C)C)C3=O)nc1 [Example 4]
22 | 8700 nM | 56 | 215 nM | 155 nM | 117 nM | Cc1cc2n(CC(=O)Nc3ccc(F)cn3)c3c(c(=O)n2n1)CN([C@@H](C)C1CC1)C3=O [Example 50]
